Experimental data as given in ChEMBL document CHEMBL1201862, “PubChem BioAssay data set” (2004).
The source made the active and inactive calls.

Assays:
[1] = Counterscreen for AddAB inhibitors: absorbance-based bacterial cell-based high throughput dose response assay for inhibitors of bacterial viability. [Related pubchem assays (depositor defined):AID435030, AID449728, AID449731, AID488942, AID488955, AID488956]; assay type: functional
[2] = cytotoxicity toward NIH3T3 fibroblasts, dose response, counter-screen, cell-based, ATP luminescence, mouse fibroblasts (AID 2010); assay type: functional;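 further: cells exposed to compound for about 90 hours before reading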
HEK293 [3] = assay: cytotoxicity in HEK293T NF-kB-Luc cells, SAR follow-up, cytotoxicity control for NF-kB activator project, cell-based, resazurin fluorescence (AID 493251); assay type: functional
[4] = control 3'UTR Renilla luciferase suppression, dose response, counter-screen for Shn3 inhibitor project, cell-based, Clone20-Shn3RL, cherry-picked (AID 624133); assay type: functional
INS1 = assay: beta cell apoptosis inhibitors, cytokine rescue, dose response, luminescence, retest (AID 449756); assay type: functional, cell-based; conditions: Rattus norvegicus;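 further: cell death triggered by IL-1 beta plus TNF-alpha plus IFN-gamma mixture; protective hits raise ATP signal compared with cytokine alone wells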
[5] = target: T1, Serine/threonine-protein phosphatase (Candida dubliniensis (strain CD36 / CBS 7987 / NCPF 3949 / NRRLY-17841) (Yeast), UniProt B9W6M3); assay: calcineurin pathway inhibitors in yeast reporter, dose response, S. cerevisiae, CDRE-lacZ, luminescence, secondary (AID 2388); assay type: functional, cell-based;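 further: yeast reporter cells carrying a calcineurin-responsive lacZ construct stimulated with calcium chloride; luminescent beta-galactosidase reporter signal in whole cells rather than isolated phosphatase activity; potency for inhibition where a drop in reporter signal means calcineurin blockade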
T1 sequence (B9W6M3 whole entry): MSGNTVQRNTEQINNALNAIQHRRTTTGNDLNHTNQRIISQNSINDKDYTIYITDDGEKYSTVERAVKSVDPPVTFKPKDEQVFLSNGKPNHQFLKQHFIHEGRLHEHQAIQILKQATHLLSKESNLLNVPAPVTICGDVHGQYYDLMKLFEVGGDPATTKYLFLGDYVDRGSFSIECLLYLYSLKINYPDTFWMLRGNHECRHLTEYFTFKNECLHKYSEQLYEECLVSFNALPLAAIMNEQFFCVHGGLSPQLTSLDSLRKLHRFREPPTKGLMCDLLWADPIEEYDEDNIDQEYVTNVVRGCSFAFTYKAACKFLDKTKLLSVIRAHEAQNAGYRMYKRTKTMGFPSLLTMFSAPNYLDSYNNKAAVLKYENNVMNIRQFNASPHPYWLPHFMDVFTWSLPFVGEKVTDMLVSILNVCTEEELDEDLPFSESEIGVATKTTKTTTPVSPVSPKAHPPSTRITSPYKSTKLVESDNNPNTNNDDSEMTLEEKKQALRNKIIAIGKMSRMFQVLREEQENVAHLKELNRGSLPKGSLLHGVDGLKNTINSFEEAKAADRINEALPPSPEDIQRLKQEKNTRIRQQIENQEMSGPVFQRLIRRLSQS

Jurkat [6] = assay: SAR Analysis of small molecule inhibitors of T-cell specific antigen receptor-induced NF-kB activation in a Jurkat cell line using a luminescence assay. [Related pubchem assays (depositor defined):AID435003, AID435012, AID465]; assay type: functional, cell-based; conditions: Homo sapiens
[7] = NIH-3T3 fibroblast cytotoxicity, dose response, cytotoxicity control, cell-based, fluorescence, Alamar Blue, secondary assay (AID 2327); assay type: functional;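 further: NIH-3T3 mouse fibroblasts cultured with fluconazole at 8 µg/mL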
Jurkat [8] = assay: SAR Analysis of small molecule inhibitors of T-cell specific antigen receptor-induced NF-kB activation in a Jurkat cell line using a luminescence assay - Set 2. [Related pubchem assays (depositor defined):AID435003, AID435012, AID465]; assay type: functional, cell-based; conditions: Homo sapiens
[9] = target: Heat shock protein HSP 90-alpha (Homo sapiens, UniProt P07900); assay type: functional, organism-based
HEK293 [10] = assay: SAR Analysis of small molecule inhibitors of T-cell specific antigen receptor-induced NF-kB activation in a HEK-293T cell line using a luminescence assay. [Related pubchem assays (depositor defined):AID435003, AID435012, AID489026]; assay type: functional, cell-based; conditions: Homo sapiens
Exodeoxyribonuclease V = Exodeoxyribonuclease V (Escherichia coli (strain K12), UniProt P04993+P07648+P08394); assay: E. coli RecBCD inhibitors, dose response, counter-screen for AddAB inhibitor project, absorbance, V66 E. coli, mutant T4 phage (AID 492957); assay type: functional, cell-based, Escherichia coli str. K-12 substr. MG1655
Exodeoxyribonuclease V, sequence (P04993 whole entry): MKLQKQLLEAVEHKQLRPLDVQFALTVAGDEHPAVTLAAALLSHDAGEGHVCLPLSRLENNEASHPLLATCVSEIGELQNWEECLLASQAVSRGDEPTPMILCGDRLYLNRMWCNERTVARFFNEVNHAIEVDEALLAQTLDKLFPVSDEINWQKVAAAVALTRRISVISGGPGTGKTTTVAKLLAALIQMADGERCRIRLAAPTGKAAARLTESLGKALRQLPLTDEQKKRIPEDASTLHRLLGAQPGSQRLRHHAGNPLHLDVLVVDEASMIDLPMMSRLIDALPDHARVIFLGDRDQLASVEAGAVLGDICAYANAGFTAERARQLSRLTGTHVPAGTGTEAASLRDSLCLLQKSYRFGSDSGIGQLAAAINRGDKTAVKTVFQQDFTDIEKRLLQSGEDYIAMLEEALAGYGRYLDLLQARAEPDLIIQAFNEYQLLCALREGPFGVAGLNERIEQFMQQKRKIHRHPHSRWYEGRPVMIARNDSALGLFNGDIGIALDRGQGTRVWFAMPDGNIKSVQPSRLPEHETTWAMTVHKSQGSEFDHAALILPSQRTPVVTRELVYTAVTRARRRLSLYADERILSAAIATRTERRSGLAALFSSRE
Exodeoxyribonuclease V, sequence (P07648 whole entry): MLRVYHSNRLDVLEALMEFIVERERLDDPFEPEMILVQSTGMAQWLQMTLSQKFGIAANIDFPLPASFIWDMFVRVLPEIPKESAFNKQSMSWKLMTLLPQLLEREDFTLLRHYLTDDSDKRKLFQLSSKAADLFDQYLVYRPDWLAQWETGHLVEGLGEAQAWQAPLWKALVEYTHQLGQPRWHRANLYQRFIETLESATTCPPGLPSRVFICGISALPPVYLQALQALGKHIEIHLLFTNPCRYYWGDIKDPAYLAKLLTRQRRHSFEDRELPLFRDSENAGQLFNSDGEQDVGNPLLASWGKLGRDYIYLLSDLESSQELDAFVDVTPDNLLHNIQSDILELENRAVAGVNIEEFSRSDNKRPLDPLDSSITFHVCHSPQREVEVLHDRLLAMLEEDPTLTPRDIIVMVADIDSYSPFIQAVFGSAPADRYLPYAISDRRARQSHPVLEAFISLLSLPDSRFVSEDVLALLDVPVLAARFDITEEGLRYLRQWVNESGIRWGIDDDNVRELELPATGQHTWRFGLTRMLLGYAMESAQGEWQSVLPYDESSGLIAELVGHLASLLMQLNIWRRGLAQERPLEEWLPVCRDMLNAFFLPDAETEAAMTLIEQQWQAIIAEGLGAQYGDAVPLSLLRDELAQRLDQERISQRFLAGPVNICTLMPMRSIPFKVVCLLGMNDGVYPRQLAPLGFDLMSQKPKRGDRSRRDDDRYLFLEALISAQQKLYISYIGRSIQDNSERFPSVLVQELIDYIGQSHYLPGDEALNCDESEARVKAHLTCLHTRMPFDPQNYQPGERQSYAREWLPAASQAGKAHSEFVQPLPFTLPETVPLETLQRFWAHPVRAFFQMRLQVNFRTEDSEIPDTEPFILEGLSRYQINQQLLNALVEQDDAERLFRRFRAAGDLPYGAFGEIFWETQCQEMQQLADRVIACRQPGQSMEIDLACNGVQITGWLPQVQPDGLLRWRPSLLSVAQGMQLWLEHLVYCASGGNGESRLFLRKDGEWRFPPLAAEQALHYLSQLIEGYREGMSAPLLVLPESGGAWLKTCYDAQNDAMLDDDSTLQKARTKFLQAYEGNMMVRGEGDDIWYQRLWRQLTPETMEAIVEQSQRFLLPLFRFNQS
Exodeoxyribonuclease V, sequence (P08394 whole entry): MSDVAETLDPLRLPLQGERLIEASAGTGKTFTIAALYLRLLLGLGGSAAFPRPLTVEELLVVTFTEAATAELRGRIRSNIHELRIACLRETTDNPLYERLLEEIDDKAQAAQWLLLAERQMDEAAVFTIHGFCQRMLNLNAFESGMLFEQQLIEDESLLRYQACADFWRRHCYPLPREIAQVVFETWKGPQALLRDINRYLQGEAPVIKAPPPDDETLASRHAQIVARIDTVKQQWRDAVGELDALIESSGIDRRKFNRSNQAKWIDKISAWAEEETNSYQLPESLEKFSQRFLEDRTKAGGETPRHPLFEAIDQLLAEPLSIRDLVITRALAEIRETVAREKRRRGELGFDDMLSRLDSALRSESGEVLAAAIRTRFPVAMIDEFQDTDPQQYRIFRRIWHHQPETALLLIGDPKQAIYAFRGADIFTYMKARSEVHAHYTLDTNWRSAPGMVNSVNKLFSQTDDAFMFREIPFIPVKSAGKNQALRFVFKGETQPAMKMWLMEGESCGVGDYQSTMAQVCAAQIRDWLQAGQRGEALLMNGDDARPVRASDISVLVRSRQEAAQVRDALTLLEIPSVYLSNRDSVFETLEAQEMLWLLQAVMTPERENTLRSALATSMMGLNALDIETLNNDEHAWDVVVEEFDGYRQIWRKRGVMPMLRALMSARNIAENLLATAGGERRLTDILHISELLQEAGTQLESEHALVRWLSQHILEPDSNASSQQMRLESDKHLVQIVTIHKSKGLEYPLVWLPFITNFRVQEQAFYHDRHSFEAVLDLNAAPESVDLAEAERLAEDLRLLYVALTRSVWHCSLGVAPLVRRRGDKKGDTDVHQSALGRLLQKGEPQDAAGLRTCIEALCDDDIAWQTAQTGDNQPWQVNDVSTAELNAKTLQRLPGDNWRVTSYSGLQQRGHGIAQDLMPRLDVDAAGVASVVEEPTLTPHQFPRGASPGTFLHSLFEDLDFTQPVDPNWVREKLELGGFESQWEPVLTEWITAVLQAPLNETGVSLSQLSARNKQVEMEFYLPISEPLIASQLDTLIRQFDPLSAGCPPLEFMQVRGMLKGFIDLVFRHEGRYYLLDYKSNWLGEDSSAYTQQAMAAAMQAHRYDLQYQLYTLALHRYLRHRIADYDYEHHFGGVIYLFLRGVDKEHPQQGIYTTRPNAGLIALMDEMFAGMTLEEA

[11] = HepG2 cell cytotoxicity, dose response, cytotoxicity control for Shn3 inhibitor project, CellTiter-Glo, cherry-picked (AID 624134); assay type: functional, cell-based
[12] = C. albicans growth with fluconazole, confirmation, fluorescence, retest (AID 2467); assay type: functional, cell-based
cells [13] = assay type: functional, cell-based
[14] = target: ATP-dependent molecular chaperone HSP82 (Candida albicans (strain WO-1) (Yeast), UniProt C4YTQ8); assay: loss of DOC-induced GRE-beta-galactosidase reporter signal, dose response, Hsp90 inhibitor project, S. cerevisiae, luminescence (AID 2400); assay type: functional, cell-based;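 further: beta-galactosidase luminescence from glucocorticoid response element reporter as proxy for Hsp90 function; inhibitor potency where signal loss means Hsp90 inhibition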
[15] = inhibitors of intracellular T. cruzi replication, confirmation, NIH3T3 host cells, beta-gal luminescence (AID 2044); assay type: functional, cell-based;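 further: intracellular parasites grown in NIH/3T3 mouse fibroblasts as host cells; luminescent beta-galactosidase reporter signal from transgenic T. cruzi replicating inside host cells; inhibitors lower the luminescence signal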
[16] = Shn3 3'UTR reporter inhibitors, dose response, cell-based, Clone20 osteoblasts, firefly luciferase, cherry-picked (AID 624132); assay type: functional;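 further: firefly luciferase luminescence from reporter carrying the Shn3 3'UTR in osteoblasts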
HEK293 [17] = assay: SAR Analysis of small molecule inhibitors of T-cell specific antigen receptor-induced NF-kB activation in a HEK-293T cell line using a luminescence assay - Set 2. [Related pubchem assays (depositor defined):AID435003, AID435012, AID489026]; assay type: functional, cell-based; conditions: Homo sapiens
cells [18] = assay type: functional, cell-based; remark: listed apart in the source
Nonstructural protein 1 = Nonstructural protein 1 (Influenza A virus, UniProt Q194T2); assay type: functional, Influenza A virus (A/California/07/2009(H1N1))
Nonstructural protein 1, sequence (Q194T2 whole entry): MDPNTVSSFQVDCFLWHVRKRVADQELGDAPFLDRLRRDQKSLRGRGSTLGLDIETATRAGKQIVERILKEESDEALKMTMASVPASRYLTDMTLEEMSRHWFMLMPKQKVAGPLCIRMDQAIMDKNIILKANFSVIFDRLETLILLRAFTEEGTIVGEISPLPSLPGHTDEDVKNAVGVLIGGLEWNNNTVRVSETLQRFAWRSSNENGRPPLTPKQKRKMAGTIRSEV

[19] = target: T2, Zinc finger protein mex-5 (Caenorhabditis elegans, UniProt Q9XUB2); assay: MEX-5/TCR-2 RNA interaction inhibitors, dose response, biochemical, C. elegans, fluorescence polarization (AID 1960)
T2 sequence (Q9XUB2 whole entry): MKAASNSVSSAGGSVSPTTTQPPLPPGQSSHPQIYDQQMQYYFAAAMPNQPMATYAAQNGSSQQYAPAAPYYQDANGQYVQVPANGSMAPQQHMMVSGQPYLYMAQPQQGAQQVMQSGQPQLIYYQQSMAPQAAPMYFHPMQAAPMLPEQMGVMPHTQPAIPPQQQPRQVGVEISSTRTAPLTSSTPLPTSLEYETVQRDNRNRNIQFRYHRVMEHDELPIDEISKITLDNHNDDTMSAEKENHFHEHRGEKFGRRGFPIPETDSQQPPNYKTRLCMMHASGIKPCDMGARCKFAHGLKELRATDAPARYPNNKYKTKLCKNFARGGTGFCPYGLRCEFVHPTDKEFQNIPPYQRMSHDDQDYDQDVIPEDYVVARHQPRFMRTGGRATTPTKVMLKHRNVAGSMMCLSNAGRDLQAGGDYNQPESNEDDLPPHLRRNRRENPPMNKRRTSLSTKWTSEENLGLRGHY

[20] = target: T3, RNA-binding protein pos-1 (Caenorhabditis elegans, UniProt G5EF15); assay: inhibitors of POS-1/mex-3 RNA binding, dose response, biochemical, fluorescence polarization (AID 1964);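 further: purified POS-1 fused to maltose binding protein made in E. coli; potency of compounds blocking POS-1 binding to fluorescent RNA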
T3 sequence (G5EF15 whole entry): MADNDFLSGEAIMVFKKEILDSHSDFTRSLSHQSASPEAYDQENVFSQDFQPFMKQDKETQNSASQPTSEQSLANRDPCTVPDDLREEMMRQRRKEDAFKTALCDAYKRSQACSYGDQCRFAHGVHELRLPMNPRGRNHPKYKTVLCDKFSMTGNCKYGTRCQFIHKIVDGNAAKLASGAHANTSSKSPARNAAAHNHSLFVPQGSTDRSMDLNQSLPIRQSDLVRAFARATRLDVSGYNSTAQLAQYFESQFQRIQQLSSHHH

ORF 73 = ORF 73 (Human herpesvirus 8, UniProt O40947); assay: inhibitors of C-LANA binding to LBS DNA, dose response, biochemical, fluorescence polarization, cherry-picked samples (AID 504725); parameters: species or system Human gammaherpesvirus 8;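 further: fluorescence polarization of a labeled DNA duplex reporting LANA DNA binding; potency is for inhibitors that block LANA binding to the DNA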
[21] = target: T4, Small ubiquitin-related modifier 1 (Homo sapiens, UniProt P63165); assay: inhibitors of SUMO1 peptide binding, dose response, biochemical, fluorescence polarization, uHTS hits (AID 624382); assay type: functional; conditions: read-out: IC50_Mean
T4 sequence (P63165 whole entry): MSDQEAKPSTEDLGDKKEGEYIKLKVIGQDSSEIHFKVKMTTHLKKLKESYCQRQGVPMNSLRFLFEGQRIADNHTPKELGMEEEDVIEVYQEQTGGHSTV

[22] = target: T5, Polyadenylate-binding protein 1 (Homo sapiens, UniProt P11940); assay: PABP1 MLLE–PAM2 interaction inhibitors, dose response, miRNA deadenylation inhibitor project, biochemical, fluorescence polarization, Cy5-PAM2 peptide, secondary (AID 602260); assay type: functional; conditions: read-out: IC50_Mean
T5 sequence (P11940 whole entry): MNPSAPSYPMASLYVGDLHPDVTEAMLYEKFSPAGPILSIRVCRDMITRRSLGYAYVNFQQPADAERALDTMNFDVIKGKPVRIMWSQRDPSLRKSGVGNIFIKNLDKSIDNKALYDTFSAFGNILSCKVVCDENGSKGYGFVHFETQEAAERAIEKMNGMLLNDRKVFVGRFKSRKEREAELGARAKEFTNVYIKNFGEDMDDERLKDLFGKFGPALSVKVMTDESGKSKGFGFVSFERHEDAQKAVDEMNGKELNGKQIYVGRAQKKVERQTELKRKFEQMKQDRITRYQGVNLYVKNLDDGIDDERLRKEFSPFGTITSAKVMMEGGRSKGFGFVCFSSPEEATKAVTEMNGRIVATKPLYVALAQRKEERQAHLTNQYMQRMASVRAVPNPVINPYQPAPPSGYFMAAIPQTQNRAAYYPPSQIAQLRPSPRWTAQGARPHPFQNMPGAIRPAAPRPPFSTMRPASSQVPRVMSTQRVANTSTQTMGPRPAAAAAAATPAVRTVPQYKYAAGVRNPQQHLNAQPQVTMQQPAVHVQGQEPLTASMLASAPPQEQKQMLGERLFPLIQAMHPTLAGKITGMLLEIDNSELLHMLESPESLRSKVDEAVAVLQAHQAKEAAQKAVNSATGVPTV

[23] = target: T4, Small ubiquitin-related modifier 1; assay: inhibitors of SUMO1 partner interactions, dose response, biochemical, FRET (AID 624383); assay type: functional; conditions: read-out: IC50_Mean
[24] = target: T6, Rac GTPase-activating protein 1 (Homo sapiens, UniProt Q9H0H5); assay: MgcRacGAP GTPase-activating activity inhibitors, confirmation, biochemical, ADP Hunter fluorescence, primary and confirmatory (AID 624330); assay type: functional
T6 sequence (Q9H0H5 whole entry): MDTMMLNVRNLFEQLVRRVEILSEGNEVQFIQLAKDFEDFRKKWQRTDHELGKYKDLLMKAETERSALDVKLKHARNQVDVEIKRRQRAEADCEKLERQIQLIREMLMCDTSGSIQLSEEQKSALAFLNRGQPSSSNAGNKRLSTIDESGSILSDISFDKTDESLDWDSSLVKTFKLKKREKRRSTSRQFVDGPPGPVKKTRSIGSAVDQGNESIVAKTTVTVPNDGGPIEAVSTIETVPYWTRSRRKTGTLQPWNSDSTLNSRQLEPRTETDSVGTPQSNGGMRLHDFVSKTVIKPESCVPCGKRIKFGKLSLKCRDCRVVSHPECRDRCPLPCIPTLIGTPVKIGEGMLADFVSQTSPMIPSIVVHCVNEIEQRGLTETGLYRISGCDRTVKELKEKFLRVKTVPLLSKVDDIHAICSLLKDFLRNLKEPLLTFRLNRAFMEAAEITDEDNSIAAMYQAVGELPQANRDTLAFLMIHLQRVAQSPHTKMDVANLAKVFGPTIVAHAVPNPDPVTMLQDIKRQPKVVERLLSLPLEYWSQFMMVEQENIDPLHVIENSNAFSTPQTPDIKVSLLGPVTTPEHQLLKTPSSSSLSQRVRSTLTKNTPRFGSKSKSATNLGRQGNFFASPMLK

Vero = Vero cell cytotoxicity, cytotoxicity control for flavivirus capping enzyme inhibitors (AID 588742); assay type: functional; conditions: Chlorocebus sabaeus
[25] = target: T5, Polyadenylate-binding protein 1; assay: PABP1 MLLE–PAM2 binding inhibitor potency, dose response, biochemical, fluorescence polarization, FITC-PAM2 peptide (AID 602259); assay type: functional; conditions: read-out: IC50_Mean
Genome polyprotein = Genome polyprotein (dengue virus type 2, UniProt P29990); assay: Dengue-2 NS5 methyltransferase inhibitors, primary screen, biochemical, confirmation dose response (AID 588689); assay type: functional
Genome polyprotein, sequence (P29990 2492-3391 limits assumed): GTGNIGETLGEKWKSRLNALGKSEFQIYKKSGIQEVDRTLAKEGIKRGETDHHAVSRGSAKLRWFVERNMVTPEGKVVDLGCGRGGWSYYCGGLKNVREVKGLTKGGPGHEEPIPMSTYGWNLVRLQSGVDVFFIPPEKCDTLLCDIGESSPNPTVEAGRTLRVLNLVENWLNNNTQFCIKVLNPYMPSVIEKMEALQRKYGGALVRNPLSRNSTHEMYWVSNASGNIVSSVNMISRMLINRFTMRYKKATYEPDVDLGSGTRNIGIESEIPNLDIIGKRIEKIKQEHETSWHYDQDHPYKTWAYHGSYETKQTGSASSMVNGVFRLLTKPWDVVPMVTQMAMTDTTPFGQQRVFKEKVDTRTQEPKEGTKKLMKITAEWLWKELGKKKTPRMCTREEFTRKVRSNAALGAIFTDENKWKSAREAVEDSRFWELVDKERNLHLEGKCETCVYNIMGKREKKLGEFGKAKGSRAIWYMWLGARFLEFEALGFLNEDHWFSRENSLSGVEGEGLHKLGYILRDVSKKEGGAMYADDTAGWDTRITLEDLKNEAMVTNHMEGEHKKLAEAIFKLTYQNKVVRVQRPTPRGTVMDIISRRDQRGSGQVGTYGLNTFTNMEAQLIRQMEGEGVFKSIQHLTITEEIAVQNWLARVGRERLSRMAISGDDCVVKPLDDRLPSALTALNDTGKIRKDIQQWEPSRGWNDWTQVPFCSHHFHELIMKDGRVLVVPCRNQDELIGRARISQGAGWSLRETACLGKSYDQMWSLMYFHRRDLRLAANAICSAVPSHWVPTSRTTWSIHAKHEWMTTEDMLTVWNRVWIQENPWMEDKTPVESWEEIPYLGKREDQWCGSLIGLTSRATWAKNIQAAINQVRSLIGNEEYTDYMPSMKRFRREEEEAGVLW

**Q.** Which results are given for CCCC(=O)NC(c1ccccc1)c1ccc2cccnc2c1O (configuration not stated)?
**A.** IC50 [1]: > 119 µM (inactive); EC50 [2]: 1.01 µM (active); IC50 (HEK293 [3]; Homo sapiens, HEK293): 13.6 µM (active); IC50 (HEK293 [3]; hek293): 8.74 µM (active); AC50 [4]: 1.89 µM (active); AC50 (INS1): 0.664 µM (active); EC50 [5]: > 180 µM (inactive); IC50 (Jurkat [6]): 3.81 µM (active); EC50 [7]: 16.6 µM (inconclusive); IC50 (Jurkat [8]): 6.27 µM (active); AC50 [9]: 4.65 µM (active); IC50 (HEK293 [10]): 7.31 µM (active); IC50 (Exodeoxyribonuclease V): > 119 µM (inactive); AC50 [11]: 2.88 µM (active); EC50 [12]: 0.463 µM (active); EC50 (cells [13]): 6.78 µM (active); EC50 [14]: > 160 µM (inactive); EC50 [15]: 0.565 µM (active); AC50 [16]: 1.99 µM (active); IC50 (HEK293 [17]): 10.5 µM (active); EC50 (cells [18]): > 350 µM (not active); IC50 (Nonstructural protein 1): 21.5 µM (active)

**Q.** Which results are given for CCOC(=O)C1Nc2ccc(C(=O)O)cc2C2C=CCC12 (configuration not stated)?
**A.** EC50 [19]: 20.3 µM (active); EC50 [20]: 38.9 µM (active); AC50 (ORF 73): 42.9 µM (active); IC50 [21]: > 66.6 µM (inactive); IC50 [22]: > 66 µM (inactive); IC50 [23]: 39 µM (inactive); IC50 [24]: 305 µM (active); CC50 (Vero): > 40 µM (active); IC50 [25]: > 66 µM (inactive); IC50 (Genome polyprotein): 44.9 µM (active)
